Measurements as given in patent publication EP0942911B1, “BENZOPYRANOPYRROLE AND BENZOPYRANOPYRIDINE ALPHA-1 ADRENERGIC COMPOUNDS” (Abbott Laboratories, priority 1996, dated 1998).
Where a name gives a salt, the structure may show the parent alone.

How the values were obtained:
[1] = test system: α-1A adrenoreceptor; test: Functional antagonism: inhibition of PE-induced contraction of canine prostate strips (Schild plot); assay type: cell-based; details: phenylephrine-induced contraction
Source text: Canine prostate strips were used in vitro as previously described (Hieble, J.P., Boyce, A.J. and Caine, M., Fed. Proc., 45: 2609-2614 (1986)), to determine antagonist potencies against phenylephrine-induced contractions.
(§1) Functional assays indicative of pharmacologically defined α-1 adrenoreceptors were used to further characterize compounds. Inhibition of phenylephrine (PE)-induced contraction of canine prostate smooth muscle can be correlated with α-1A adrenoreceptor activation. […] For each of these models, agonist dose response curves were repeated against increasing concentrations of test agent to derive a Schild plot [log ([…]) against log (molarity of test agent)] to determine the pA2.

[2] = target: T1, α-1d adrenoreceptor (Rattus norvegicus, UniProt P23944); test: biochemical; assay type: binding; details: [3H]-prazosin radioligand; cloned receptor in LTK cell membranes; read-out: Radioligand Binding (Ki, nM) 1d (Rat)
T1 sequence (P23944 1-561): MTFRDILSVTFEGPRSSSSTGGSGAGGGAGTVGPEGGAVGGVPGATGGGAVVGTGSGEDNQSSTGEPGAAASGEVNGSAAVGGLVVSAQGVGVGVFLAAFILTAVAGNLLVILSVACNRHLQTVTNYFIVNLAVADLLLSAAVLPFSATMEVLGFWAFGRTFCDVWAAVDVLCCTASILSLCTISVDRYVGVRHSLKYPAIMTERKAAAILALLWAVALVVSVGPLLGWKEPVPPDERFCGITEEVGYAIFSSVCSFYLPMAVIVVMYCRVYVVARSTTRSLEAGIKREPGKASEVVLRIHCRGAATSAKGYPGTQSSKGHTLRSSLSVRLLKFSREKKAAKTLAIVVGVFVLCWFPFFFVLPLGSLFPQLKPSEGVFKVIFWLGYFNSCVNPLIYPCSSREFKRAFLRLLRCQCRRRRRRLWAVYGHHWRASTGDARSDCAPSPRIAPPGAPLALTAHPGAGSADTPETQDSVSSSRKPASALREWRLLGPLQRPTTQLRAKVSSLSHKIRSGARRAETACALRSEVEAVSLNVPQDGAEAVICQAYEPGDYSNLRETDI
Summary of the method: (§2)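 LTK mouse fibroblasts stably transfected with α-1a, α-1b or α-1d cDNA → roller-bottle culture 5 days at 37 °C → membranes in 50 mM Tris-HCl, stored at -70 °C → radioligand binding → scintillation counting.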

[3] = test system: α-1 Adrenoceptors; test: Functional antagonism in rat aorta (method not described); assay type: cell-based
[4] = target: T2, α-1b adrenoreceptor (Mesocricetus auratus, UniProt P18841); test: biochemical; assay type: binding, hamster; details: [3H]-prazosin radioligand; cloned receptor in LTK cell membranes; read-out: Radioligand Binding (Ki, nM) 1b (Hamster)
T2 sequence (P18841 1-515): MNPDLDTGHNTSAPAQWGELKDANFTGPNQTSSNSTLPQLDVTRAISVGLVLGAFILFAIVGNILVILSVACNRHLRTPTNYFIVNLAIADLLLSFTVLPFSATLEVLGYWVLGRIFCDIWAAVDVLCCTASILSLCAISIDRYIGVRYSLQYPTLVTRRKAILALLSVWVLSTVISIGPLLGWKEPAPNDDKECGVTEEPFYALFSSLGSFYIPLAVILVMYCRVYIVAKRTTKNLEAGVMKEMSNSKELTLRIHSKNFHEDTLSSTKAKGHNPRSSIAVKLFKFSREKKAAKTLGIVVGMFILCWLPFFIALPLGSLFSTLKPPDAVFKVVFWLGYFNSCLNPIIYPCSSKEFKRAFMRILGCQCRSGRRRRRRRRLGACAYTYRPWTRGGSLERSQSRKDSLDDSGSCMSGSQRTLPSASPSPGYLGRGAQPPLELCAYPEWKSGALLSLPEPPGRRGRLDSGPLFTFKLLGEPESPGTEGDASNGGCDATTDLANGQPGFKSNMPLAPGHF
Summary of the method: as §2

[5] = target: T3, α-1A adrenoreceptor (rat submaxillary gland) (Rattus norvegicus, UniProt P43140); test: biochemical; assay type: binding; details: [3H]-prazosin radioligand; rat submaxillary gland membranes; read-out: Radioligand Binding (Ki, nM) 1A (Rat)
T3 sequence (P43140 1-466): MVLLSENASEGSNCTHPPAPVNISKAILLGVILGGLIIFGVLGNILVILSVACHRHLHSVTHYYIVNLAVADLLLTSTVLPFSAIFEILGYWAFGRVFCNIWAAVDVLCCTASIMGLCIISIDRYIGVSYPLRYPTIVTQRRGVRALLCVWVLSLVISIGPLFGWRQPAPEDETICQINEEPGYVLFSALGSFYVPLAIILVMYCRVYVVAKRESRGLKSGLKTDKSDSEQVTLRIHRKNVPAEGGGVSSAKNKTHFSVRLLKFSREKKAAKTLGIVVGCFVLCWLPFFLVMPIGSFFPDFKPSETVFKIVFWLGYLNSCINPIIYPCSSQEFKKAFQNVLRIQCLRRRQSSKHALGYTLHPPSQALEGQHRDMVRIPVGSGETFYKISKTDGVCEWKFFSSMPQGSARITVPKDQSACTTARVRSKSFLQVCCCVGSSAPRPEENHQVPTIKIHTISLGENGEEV
Summary of the method: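 Radioligand binding to α-1A sites in membrane homogenates of rat submaxillary gland, run after Greengrass and Bremner. Bound radioactivity counted by liquid scintillation.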

[6] = target: T4, α-1a adrenoreceptor (Bos taurus, UniProt P18130); test: biochemical; assay type: binding, bovine; details: [3H]-prazosin radioligand; cloned receptor in LTK cell membranes; read-out: Radioligand Binding (Ki, nM) 1a (Bovine)
T4 sequence (P18130 1-466): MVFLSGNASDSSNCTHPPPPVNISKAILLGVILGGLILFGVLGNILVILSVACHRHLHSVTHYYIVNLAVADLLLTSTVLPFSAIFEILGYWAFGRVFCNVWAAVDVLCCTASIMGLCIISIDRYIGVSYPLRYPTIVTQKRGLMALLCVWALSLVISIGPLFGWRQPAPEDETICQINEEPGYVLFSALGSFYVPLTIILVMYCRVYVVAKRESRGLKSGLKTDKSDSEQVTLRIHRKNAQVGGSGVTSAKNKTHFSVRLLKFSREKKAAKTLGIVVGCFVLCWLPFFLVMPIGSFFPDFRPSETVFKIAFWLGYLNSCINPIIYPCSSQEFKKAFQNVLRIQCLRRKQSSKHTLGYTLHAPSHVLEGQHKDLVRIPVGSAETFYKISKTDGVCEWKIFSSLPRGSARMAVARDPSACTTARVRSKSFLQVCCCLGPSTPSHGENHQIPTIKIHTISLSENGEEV
Summary of the method: as §2

[7] = target: T5, α-1B adrenoreceptor (Rattus norvegicus, UniProt P15823); test: cell-based; details: phenylephrine-induced contraction; Schild plot
T5 construct: from tissue; host or cells: rat spleen
T5 sequence (P15823 1-515): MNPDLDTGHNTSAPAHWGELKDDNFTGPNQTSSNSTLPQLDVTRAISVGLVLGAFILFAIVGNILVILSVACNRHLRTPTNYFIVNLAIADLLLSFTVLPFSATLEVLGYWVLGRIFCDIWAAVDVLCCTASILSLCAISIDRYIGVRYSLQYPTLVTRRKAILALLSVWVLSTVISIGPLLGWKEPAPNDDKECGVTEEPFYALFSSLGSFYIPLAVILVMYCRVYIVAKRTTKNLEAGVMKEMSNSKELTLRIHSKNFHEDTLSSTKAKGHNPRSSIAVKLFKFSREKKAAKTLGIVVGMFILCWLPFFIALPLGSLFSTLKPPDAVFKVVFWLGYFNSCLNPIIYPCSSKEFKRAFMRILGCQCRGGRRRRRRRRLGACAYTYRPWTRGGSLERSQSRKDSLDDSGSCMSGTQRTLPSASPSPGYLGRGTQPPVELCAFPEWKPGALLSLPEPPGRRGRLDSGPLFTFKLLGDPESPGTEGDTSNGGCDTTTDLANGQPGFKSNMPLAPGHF
Source text: as §1

In Vitro Characterization (pA2) Rat Spleen [7]	Compound	In Vitro Characterization (pA2) Dog Prostate [1]	Ki [2] [nM]	In Vitro Characterization (pA2) Rat Aorta [3]	Ki [4] [nM]	Ki [5] [nM]	Ki [6] [nM]
	COc1cccc2c1[C@@H]1CCN(CCCCn3c(=O)[nH]c4c(sc5cccnc54)c3=O)C[C@H]1CO2 (racemic) [Example 88, 3-[4-((±)-trans-10-Methoxy-1,3,4,4a,5,10b-hexahydro-2H-[1]-benzopyrano[3,4-c]pyrido-3-yl)butyl]-pyrido[2',3':4,5]thieno[3,2-d]pyrimidine-2,4(1H,3H)-dione hydrochloride]	8.09					
	COc1cccc2c1[C@@H]1CN(CCCCn3c(=O)[nH]c4c(sc5nc(Cl)ccc54)c3=O)C[C@@H]1CO2 [Example 32, 3-[4-((3aR,9bR)-cis-9-Methoxy-1,2,3,3a,4,9b-hexahydro-[1]-benzopyrano[3,4-c]pyrrol-2-yl)butyl]-7-chloro-pyrido[3',2':4,5]thieno[3,2-d]pyrimidine-2,4(1H,3H)-dione hydrochloride]		0.86	9.31			
	COc1ccc(O)c2c1[C@@H]1CN(CCCCn3c(=O)[nH]c4c(sc5ncc(-c6ccccc6)nc54)c3=O)C[C@@H]1CO2 [Example 105, 3-[4-((3aR,9bR)-cis-6-Hydroxy-9-methoxy-1,2,3,3a,4,9b-hexahydro-[1]-benzopyrano[3,4-c]pyrrol-2-yl)butyl]-8-phenyl-pyrazino[2',3':4,5]thieno[3,2-d]pyrimidine-2,4(1H,3H)-dione]		55.9		1620	26.3	6.42
8.60	COc1cc2nc(N3CCN(C(=O)C4CCCO4)CC3)nc(N)c2cc1OC (centres unmarked) [Terazosin, terazosin, reference compound]		0.689	8.65			3.31
